The text below walks through data of patent publication US9656962B2, “Ring-contracted morphinans and the use thereof” (Purdue Pharma L.P., priority 2013, dated 2017).

The structures appear in SMILES notation. Some results are limits rather than exact numbers.

This assay addresses μ-opioid receptor (Homo sapiens (Human), UniProt P35372). Briefly: μ-opioid receptor [35S]GTPγS functional assay, HEK-293 cells (Table 6). The assay is classed as biochemical. The settings on record: for Emax: relative to DAMGO; for EC50: μ GTP. The method, then:
μ-Opioid Receptor Functional Assay Procedures: [^35S]GTPγS functional assays were conducted using freshly thawed μ-receptor membranes prepared in-house from a cell line expressing recombinant μ opioid receptor in a HEK-293, CHO or U-2 OS cell background, or purchased from a commercial source (Perkin Elmer, Shelton, Conn.; or DiscovRx, Fremont, Calif.). Assay reactions were prepared by sequentially adding the following reagents to binding buffer (100 mM NaCl, 10 mM MgCl2, 20 mM HEPES, pH 7.4) on ice (final concentrations indicated): membrane protein (0.026 mg/mL), saponin ([…]), GDP ([…]) and [^35S]GTPγS (0.20 nM; Perkin Elmer, Shelton, Conn.). The prepared membrane solution (190 μl/well) was transferred to 96-shallow well polypropylene plates containing 10 μl of 20× concentrated stock solutions of the agonist [D-Ala^2, N-methyl-Phe^4 Gly-ol^5]-enkephalin (DAMGO) prepared in dimethyl sulfoxide (DMSO). Plates were incubated for 30 min at about 25° C. with shaking Reactions were terminated by rapid filtration onto 96-well Unifilter GF/B filter plates (Perkin Elmer, Shelton, Conn.) using a 96-well tissue harvester (Perkin Elmer, Shelton, Conn.) followed by three filtration washes with 200 μl of ice-cold wash buffer (10 mM NaH2PO4, 10 mM Na2HPO4, pH 7.4). Filter plates were subsequently dried at 50° C. for 2-3 hours. BetaScint scintillation cocktail (Perkin Elmer, Shelton, Conn.) was added (50 μl/well) and plates were counted using a Packard Top-Count for 1 min/well. Data were analyzed using the sigmoidal dose-response curve fitting functions in GraphPad PRISM v. 3.0, or an in-house function for non-linear, sigmoidal dose-response curve-fitting. [^35S]GTPγS functional assays can also be conducted using freshly thawed μ-receptor membranes prepared from a cell line expressing recombinant μ opioid receptor in a CHO-K1 cell background.
μ GTP Emax (%) is the maximal effect elicited by a compound relative to the effect elicited by DAMGO, a standard μ agonist. Generally, the μ GTP Emax (%) value measures the efficacy of a compound to treat or prevent pain or other Conditions.
The following TABLE 6 provides results on the activity response of certain Compounds of the Invention at the μ- and κ-opioid receptors determined as described above using HEK-293 cells.

Broadly, the Emax is the greatest response seen or fitted, relative to the assay's reference. By EC50 is commonly meant the midpoint of the concentration-response curve. A low value points to a more potent agent. As for `O=C([C@H]1C[C@]23CCN(CC4CC4)[C@H](Cc4ccc(O)cc42)[C@]3(O)C1)N1CCN(c2ccccc2)CC1` [Compound 96, ((2S,3aS,4R,9bS)-12-(cyclopropylmethyl)-3a,8-dihydroxy-1,2,3,3a,4,5-hexahydro-4,9b-(epiminoethano)cyclopenta-[a]naphthalen-2-yl)(4-phenylpiperazin-1-yl)methanone], the Emax was found to be 14.2 ± 2.5% and the EC50 came out at 0.0144 ± 0.00255 µM.
For `NC(=O)c1ccc2c(c1)[C@]13CCN(CC4CC4)[C@H](C2)[C@]1(O)C[C@H](C(=O)NCCN1CCOCC1)C3` [Compound 118, (2R,3aS,4R,9bS)-12-(cyclopropylmethyl)-3a-hydroxy-N^2-(2-morpholinoethyl)-1,2,3,3a,4,5-hexahydro-4,9b-(epimino-ethano)cyclopenta[a]naphthalene-2,8-dicarboxamide], in that order: 13.2 ± 1.17% and 0.175 ± 0.0099 µM.
As to `O=S(=O)(N[C@@H]1C[C@]23CCN(CC4CC4)[C@H](Cc4ccc(O)cc42)[C@]3(O)C1)c1ccccc1` [Compound 95, N-((2R,3aS,4R,9bR)-12-(cyclopropyl-methyl)-3a,8-dihydroxy-1,2,3,3a,4,5-hexahydro-4,9b-(epiminoethano)-cyclopenta[a]naphthalen-2-yl)benzene-sulfonamide], the Emax was 1%. Where the note is “bound given in μM”, the EC50 is greater than 20 µM.
On the same counts, the results for `O=C(NCc1ccc(Cl)cc1F)[C@@H]1C[C@]23CCN(CC4CC4)[C@H](Cc4ccc(O)cc42)[C@]3(O)C1` [Compound 136, (2R,3aS,4R,9bS)-N-(4-chloro-2-fluorobenzyl)-12-(cyclopropylmethyl)-3a,8-dihydroxy-1,2,3,3a,4,5-hexahydro-4,9b-(epiminoethano)cyclopenta-[a]naphthalene-2-carboxamide] are -0.33 ± 0.67% and greater than 20 µM.
As for `CN1CC[C@]23C[C@@H](C(=O)NCCN4CCOCC4)C[C@@]2(O)[C@H]1Cc1ccc(O)cc13` [Compound 112, (2R,3aS,4R,9bS)-3a,8-dihydroxy-12-methyl-N-(2-morpholinoethyl)-1,2,3,3a,4,5-hexahydro-4,9b-(epimino-ethano)cyclopenta[a]naphthalene-2-carboxamide], the Emax was found to be 38.8 ± 1.54% and the EC50 amounted to 10.2 ± 0.241 µM.
For `CN1CC[C@]23C[C@@H](C(=O)NCc4ccc(O)cc4O)C[C@@]2(O)[C@H]1Cc1ccc(O)cc13` [Compound 98, (2R,3aS,4R,9bS)-N-(2,4-dihydroxy-benzyl)-3a,8-dihydroxy-12-methyl-1,2,3,3a,4,5-hexahydro-4,9b-(epiminoethano)cyclopenta[a]naphthalene-2-carboxamide], in that order: 26.7 ± 0.67% and 1.29 ± 0.223 µM.
With `Cc1c(Cl)cccc1CNC(=O)[C@H]1C[C@]23CCN(CC4CC4)[C@H](Cc4ccc(O)cc42)[C@]3(O)C1` [Compound 138, (2S,3aS,4R,9bS)-N-(3-chloro-2-methylbenzyl)-12-(cyclopropylmethyl)-3a,8-dihydroxy-1,2,3,3a,4,5-hexahydro-4,9b-(epiminoethano)cyclopenta-[a]naphthalene-2-carboxamide], the Emax was determined as 52.4 ± 1.72% and the response was half-maximal at 0.00071 ± 6.8e-05 µM (EC50).
For `CN1CC[C@]23C[C@@H](C(=O)N4CCOCC4)C[C@@]2(O)[C@H]1Cc1ccc(O)cc13` [Compound 111, ((2R,3aS,4R,9bS)-3a,8-dihydroxy-12-methyl-1,2,3,3a,4,5-hexahydro-4,9b-(epiminoethano)cyclopenta[a]naphthalen-2-yl)(morpholino)methanone], in that order: 35.1 ± 1.06% and 3.17 ± 0.493 µM.
As to `O=C(NCc1cccc(O)c1O)[C@H]1C[C@]23CCN(CC4CC4)[C@H](Cc4ccc(O)cc42)[C@]3(O)C1` [Compound 141, (2S,3aS,4R,9bS)-12-(cyclopropylmethyl)-N-(2,3-dihydroxybenzyl)-3a,8-dihydroxy-1,2,3,3a,4,5-hexabydro-4,9b-(epimino-ethano)cyclopenta[a]naphthalene-2-carboxamide], the Emax came to 47.4 ± 0.83% and it took 0.00117 ± 0.0001 µM to reach a half-maximal effect (EC50).
